According to patent US20050037956A1, “Screening method for agents useful in treating diabetes” (priority 2001, published 2005):

Key:
PAI-1 expression = test: PAI-1 induction by insulin in adipocytes in presence of PI3K or MEK1 inhibitors; format: cell-based; settings: adipocytes treated by insulin in presence of inhibitor
Experimental: (§1) Adipocyte differentiation was monitored by staining lipids with oil-red O. Briefly, cells were washed twice with phosphate buffered saline (PBS) and fixed with 3.7% formaldehyde solution for 1 h. After washing twice with PBS, cells were stained with oil-red O [60:40 (v/v) dilution in water of 0.5% stock solution (v/v, in isopropanol)] for 1 h. Cells were then washed twice with PBS and twice with water. Lipid-positive cells started to appear after the third day of induction and reached more than 90% by the eighth day. PPARγ (peroxisome proliferator-activated receptor gamma) mRNA, another marker of adipocyte differentiation, also started to appear at the third day and reached a plateau by the 5th day. For RNA analysis, total RNA (12 μg), prepared with acid guanidinium thiocyanate-phenol-chloroform method, was resolved by agarose gel electrophoresis under denaturing conditions and transferred to a nylon membrane as described (Northern blotting) (Ziegler, A., et al., 1991, J Biol Chem 266(31): 21067-74). Equal RNA loading and transfer to nylon membranes were confirmed by staining rRNA with methylene blue (Herrin, D. L. and G. W. Schmidt, 1988, Biotechniques 6(3): 196-7, 199-200). […] Levels of specific RNA were measured using a Molecular Dynamic PhosphorImager. […]

PAI-1 mRNA = PAI-1 mRNA induction by insulin at different stages of NIH3T3-L1 differentiation (Northern blot); format: cell-based
Experimental: NIH3T3-L1 preadipocytes (ATCC No. CL-173) were induced to differentiate into adipocytes by treating confluent cells with a mixture of insulin, dexamethasone and isobutylmethylxanthine followed by a successive change of different media (Student, A. K. et al., 1980, J Biol Chem. 255:4745-4750). In brief, NIH3T3-L1 preadipocytic cells (2×10^5 cells) were grown in 60-mm plastic dishes with 4 ml Dulbecco's modified Eagle's medium (DMEM) supplemented with 10% fetal bovine serum (FBS). Two days after cells reached confluency, the medium was changed to DMEM containing 10% FBS, 10 μg/ml insulin, 1 μM dexamethason, and 0.5 mM isobutylmethylxanthine. Two days later, this medium was replaced with DMEM supplemented only with 10 μg/ml insulin. Subsequently, two days later this medium was withdrawn and replaced with DMEM containing 10% FBS, and thereafter cells were replenished with the same medium every two days.
as §1, with “21067-74).” for “21067-74). Equal RNA loading and transfer to nylon membranes were confirmed by staining rRNA with methylene blue (Herrin, D. L. and G. W. Schmidt, 1988, Biotechniques 6(3): 196-7, 199-200).”

[1] = test system: pRB-E2F interaction (E2F-pRB complex); test: Electromobility shift assay (EMSA) with E2pro oligonucleotide and nuclear extracts from day 8 NIH3T3-L1 cells, peptide added to binding reaction; settings: in vitro, increasing peptide concentration added to binding reaction, day 8 NIH3T3-L1 nuclear extracts
Experimental: Changes in E2F DNA-binding patterns during adipogenesis were investigated. Nuclear extracts were prepared from NIH3T3-L1 cells at different times during induction of differentiation and their E2F DNA-binding activity was assessed by DNA gel shift assays using a radio active E2pro oligonucleotide corresponding to two tandem E2F binding sites in the adenovirus E2 promoter. Oligonucleotide probes were radiolabeled using E. coli polynucleotide kinase and {γ-32P}ATP. The oligonucleotides used for electromobility shift assays (EMSA) were as follows (only upper strands are given): E2pro (corresponding to the −72 to −32 region of the adenovirus E2 promoter; E2F binding site), 5′-[…]-3′ (SEQ ID NO:1); CycD1 (E2F binding site from the cyclin D1 promoter), 5′-[…]-3′ (SEQ ID NO:2); CycD1m, 5′-[…]-3′ (SEQ ID NO:3, mutated nucleotides in bold italic). […] The gel was dried and analyzed using a PhosphorImager. […]
The specific peptide was modified to improve cell penetration by linking to the amino terminal end of the interfering peptide a specific region of the HIV tat protein of 18 amino acids in length, which renders conjugated peptides cell-penetrable (Schwarze, S. R., et al., 1999, Science 285(5433): 1569-72). The effect of this elongated interfering peptide on E2F was first assessed in vitro as above. […]

Compound: COc1cccc(-c2cc(=O)c3ccccc3o2)c1N [PD98059]
- PAI-1 induction by insulin (PAI-1 expression): suppressed

Compound: insulin
- PAI-1 mRNA induction by insulin (PAI-1 mRNA; NIH3T3-L1 cells before cells were confluent): induced to a very low extent
- PAI-1 mRNA induction by insulin (PAI-1 mRNA; NIH3T3-L1 cells when confluent): not at all
- PAI-1 mRNA induction by insulin (PAI-1 mRNA; terminally differentiated cells (day 4 and 8)): induced markedly

Compound: specific interfering peptide: peptide whose sequence was derived from amino acids 402-419 of E2F1 corresponding to the pRB-binding region of E2F1 (LSPPHEALDYHFGLEEGE; UniProt Q01094 402-419, looked up, fragment)
- shift of DNA-protein complexes (E2F DNA-binding, EMSA) [1]: shift from DNA-protein complexes of higher molecular weight forms to complexes of lower molecular weight forms
